Values quoted from earlier work, collected in US8771972B2 (Saladax Biomedical Inc., priority 2011, dated 2014).

Conditions: background statement

SMILES | activity of metabolite
C[N+]1([O-])CCN(C2=Nc3cc(Cl)ccc3Nc3ccccc32)CC1 [N-Oxide derivative, Clozapine-N-oxide] | inactive
Clc1ccc2c(c1)N=C(N1CCNCC1)c1ccccc1N2 [N-desmethyl metabolite, N-desmethylclozapine] | limited activity
